This note sets out measurements from patent US9255100B2 (BAYER INTELLECTUAL PROPERTY GMBH, priority 2010, dated 2016).

By IC50 is commonly meant the midpoint of a concentration-inhibition curve.

Some results are limits rather than exact numbers.

The experiment concerns the target T1, N-terminally GST-tagged human full length recombinant Mps-1 kinase (Homo sapiens, UniProt P33981).
T1 construct: N-terminally GST-tagged human full length recombinant Mps-1 kinase; purchased Invitrogen, Karslruhe, Germany PV4071
T1 sequence (P33981 1-857): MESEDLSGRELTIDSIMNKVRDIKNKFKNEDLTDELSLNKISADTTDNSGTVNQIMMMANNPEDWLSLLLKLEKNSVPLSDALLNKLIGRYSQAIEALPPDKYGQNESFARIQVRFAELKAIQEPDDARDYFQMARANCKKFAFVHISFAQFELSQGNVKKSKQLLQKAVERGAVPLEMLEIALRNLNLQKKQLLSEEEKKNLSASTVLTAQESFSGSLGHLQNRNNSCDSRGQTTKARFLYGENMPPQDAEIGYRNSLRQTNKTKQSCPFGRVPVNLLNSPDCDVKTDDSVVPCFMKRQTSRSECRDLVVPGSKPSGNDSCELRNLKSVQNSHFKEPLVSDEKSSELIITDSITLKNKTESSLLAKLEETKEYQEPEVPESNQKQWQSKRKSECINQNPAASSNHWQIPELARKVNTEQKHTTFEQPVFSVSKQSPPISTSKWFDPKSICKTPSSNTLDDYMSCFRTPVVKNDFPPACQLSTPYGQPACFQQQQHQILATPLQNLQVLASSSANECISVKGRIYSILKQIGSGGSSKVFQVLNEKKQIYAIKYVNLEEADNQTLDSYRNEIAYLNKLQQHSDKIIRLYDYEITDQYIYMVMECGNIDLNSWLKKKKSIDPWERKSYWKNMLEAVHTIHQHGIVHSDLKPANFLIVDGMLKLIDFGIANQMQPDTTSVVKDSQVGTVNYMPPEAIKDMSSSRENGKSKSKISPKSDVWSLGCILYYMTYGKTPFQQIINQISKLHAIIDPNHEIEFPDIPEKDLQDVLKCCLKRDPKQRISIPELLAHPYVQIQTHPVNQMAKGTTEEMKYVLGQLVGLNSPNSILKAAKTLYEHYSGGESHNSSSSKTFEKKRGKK
Description: Mps-1 kinase assay (TR-FRET). It counts as biochemical. The settings on record: Mps1 IC50 [nM], 10 μM ATP, 1 μM peptide substrate, 60 min at 22° C. The gist of the method:
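Kinase activity of N-terminally GST-tagged full-length recombinant Mps-1, used at about 1 nM final and set within the linear range, was measured on a biotinylated peptide substrate. Phosphopeptide was detected by TR-FRET from Eu-anti-phospho(Ser/Thr) antibody to streptavidin-XLent after 1 h at 22° C.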
For orientation: TR-FRET usually uses a lanthanide donor and a delayed reading to cut background.
For `Cc1cc(-c2cnc3c(NCC(C)(C)O)cc(Nc4ccc(F)c(F)c4)nn23)ccc1C(=O)NC1CC1` [Example 307, N-cyclopropyl-4-{6-[(3,4-difluorophenyl)amino]-8-[(2-hydroxy-2-methylpropyl)amino]imidazo[1,2-b]pyridazin-3-yl}-2-methylbenzamide], the IC50 was 0.5 nM. As to `Cc1cc(-c2cnc3c(NCCC(F)(F)F)cc(Oc4ccccc4F)nn23)ccc1C(=O)NC1CC1` [Example 473, N-cyclopropyl-4-{6-(2-fluorophenoxy)-8-[(3,3,3-trifluoropropyl)amino]imidazo[1,2-b]pyridazin-3-yl}-2-methyl-benzamide], the IC50 amounted to 0.4 nM. For `CCNC(=O)c1ccc(-c2cnc3c(NCCN4CCOCC4)cc(Oc4ccc(OC)cc4F)nn23)cc1C` [Example 591, N-ethyl-4-[6-(2-fluoro-4-methoxyphenoxy)-8-{[2-(morpholin-4-yl)ethyl]amino}imidazo[1,2-b]pyridazin-3-yl]-2-methylbenzamide], the IC50 was determined as 2.5 nM.

In the case of `Cc1cc(-c2cnc3c(NCC(C)(C)O)cc(-c4ccccc4)nn23)ccc1C(=O)NC1CC1` [Example 12, N-cyclopropyl-4-{8-[(2-hydroxy-2-methylpropyl)amino]-6-phenylimidazo[1,2-b]pyridazin-3-yl}-2-methylbenzamide], the IC50 is 3.2 nM. Take `Cc1cc(-c2cnc3c(NCC4CCS(=O)(=O)CC4)cc(Oc4ccccc4F)nn23)ccc1C(=O)NC1CC1` [Example 297, N-cyclopropyl-4-[8-{[(1,1-dioxidotetrahydro-2H-thiopyran-4-yl)methyl]amino}-6-(2-fluorophenoxy)imidazo[1,2-b]pyridazin-3-yl]-2-methylbenzamide]: the IC50 was 0.1 nM. Turning to `Cc1cc(-c2cnc3c(NCC(C)(C)N)cc(Sc4cccc(F)c4)nn23)ccc1C(=O)NC1CC1` [Example 78, 4-{8-[(2-Amino-2-methylpropyl)amino]-6-[(3-fluorophenyl)sulfanyl]imidazo[1,2-b]pyridazin-3-yl}-N-cyclopropyl-2-methylbenzamide], the IC50 came out at 0.2 nM. As to `Cc1cc(-c2cnc3c(NCCC(F)(F)F)cc(Sc4ccccc4CO)nn23)ccc1C(=O)NC1CC1` [Example 270, N-cyclopropyl-4-(6-{[2-(hydroxymethyl)phenyl]sulfanyl}-8-[(3,3,3-trifluoropropyl)amino]imidazo[1,2-b]pyridazin-3-yl)-2-methylbenzamide], the IC50 was 0.1 nM. Under `Cc1ccc(O)cc1Nc1cc(NCCC(F)(F)F)c2ncc(-c3ccc(C(=O)NC4CC4)c(C)c3)n2n1` [Example 443, N-cyclopropyl-4-{6-[(5-hydroxy-2-methylphenyl)amino]-8-[(3,3,3-trifluoropropyl)amino]imidazo[1,2-b]pyridazin-3-yl}-2-methylbenzamide] stands 0.1 nM; under `Cc1cc(-c2cnc3c(NCC(C)(C)O)cc(Sc4ccc(Cl)cc4CO)nn23)ccc1C(=O)NC1CC1` [Example 393, 4-(6-{[4-chloro-2-(hydroxymethyl)phenyl]sulfanyl}-8-[(2-hydroxy-2-methylpropyl)amino]imidazo[1,2-b]pyridazin-3-yl)-N-cyclopropyl-2-methylbenzamide], 2.3 nM; under `Cn1nccc1-c1cc(NCCC(F)(F)F)c2ncc(-c3ccc(C(=S)NC4CC4)cc3)n2n1` [Example 45, N-cyclopropyl-4-{6-(1-methyl-1H-pyrazol-5-yl)-8-[(3,3,3-trifluoropropyl)amino]imidazo[1,2-b]pyridazin-3-yl}benzenecarbothioamide], 1.1 nM. For the molecule `Cc1cc(-c2cnc3c(NCCC(F)(F)F)cc(Sc4cccc(F)c4C)nn23)ccc1C(=O)NC1CC1` [Example 387, N-cyclopropyl-4-{6-[(3-fluoro-2-methylphenyl)sulfanyl]-8-[(3,3,3-trifluoropropyl)amino]imidazo[1,2-b]pyridazin-3-yl}-2-methylbenzamide], the IC50 came to 0.3 nM. As for `Cc1cc(-c2cnc3c(NCC(O)C(F)(F)F)cc(Sc4cccc(F)c4)nn23)ccc1C(=O)NC1CC1` (racemic) [Example 216, (RS)—N-cyclopropyl-4-{6-[(3-fluorophenyl)sulfanyl]-8-[(3,3,3-trifluoro-2-hydroxypropyl)amino]imidazo[1,2-b]pyridazin-3-yl}-2-methylbenzamide], the IC50 was less than 1 nM.

Regarding `Cc1cc(-c2cnc3c(NCCC(F)(F)F)cc(Nc4c(O)cccc4F)nn23)ccc1C(=O)NC1CC1` [Example 478, N-cyclopropyl-4-{6-[(2-fluoro-6-hydroxyphenyl)amino]-8-[(3,3,3-tri-fluoropropyl)amino]imidazo[1,2-b]pyridazin-3-yl}-2-methylbenzamide], the IC50 is 0.3 nM. Under `Cc1cc(-c2cnc3c(NCCC(F)(F)F)cc(Sc4ccccc4)nn23)ccc1C(=O)NC1CC1` [Example 207, N-cyclopropyl-2-methyl-4-{6-(phenylsulfanyl)-8-[(3,3,3-trifluoropropyl)amino]imidazo[1,2-b]pyridazin-3-yl}benzamide] stands less than 1 nM; under `Cc1cc(-c2cnc3c(NCC(C)(C)O)cc(Oc4cccc(F)c4)nn23)ccc1C(=O)NC1CC1` [Example 75, N-cyclopropyl-4-{6-(3-fluorophenoxy)-8-[(2-hydroxy-2-methylpropyl)amino]imidazo[1,2-b]pyridazin-3-yl}-2-methylbenzamide], less than 0.7 nM. Under `Cc1cc(-c2cnc3c(NCCC(F)(F)F)cc(Oc4cccc(OC(C)C)c4)nn23)ccc1C(=O)NC1CC1` [Example 381, N-cyclopropyl-2-methyl-4-{6-[3-(propan-2-yloxy)phenoxy]-8-[(3,3,3-trifluoropropyl)amino]imidazo[1,2-b]pyridazin-3-yl}benzamide] stands 0.6 nM; under `Cc1cc(-c2cnc3c(NCC4CN(C(=O)OC(C)(C)C)C4)cc(-c4ccccc4CO)nn23)ccc1C(=O)NC1CC1` [Example 339, tert-butyl 3-[({3-[4-(cyclopropylcarbamoyl)-3-methylphenyl]-6-[2-(hydroxy-methyl)phenyl]imidazo[1,2-b]pyridazin-8-yl}amino)methyl]azetidine-1-carboxylate], 95.9 nM; under `Cc1cc(-c2cnc3c(NCC(C)(C)O)cc(-c4ccc(CO)cc4)nn23)ccc1C(=O)NC1CC1` [Example 155, N-cyclopropyl-4-{6-[4-(hydroxymethyl)phenyl]-8-[(2-hydroxy-2-methylpropyl)amino]imidazo[1,2-b]pyridazin-3-yl}-2-methylbenzamide], 3.6 nM.

Consider `Cc1cc(-c2cnc3c(NCC4CCN(C)CC4)cc(Oc4cccc(F)c4)nn23)ccc1C(=O)NC1CC1` [Example 311, N-cyclopropyl-4-[6-(3-fluorophenoxy)-8-{[(1-methylpiperidin-4-yl)methyl]amino}imidazo[1,2-b]pyridazin-3-yl]-2-methyl-benzamide], for which the IC50 stood at 0.2 nM. `Cc1cc(-c2cnc3c(NCC(C)(C)O)cc(Nc4ccccc4F)nn23)ccc1C(=O)NC1CC1` [Example 384, N-cyclopropyl-4-{6-[(2-fluorophenyl)amino]-8-[(2-hydroxy-2-methylpropyl)amino]imidazo[1,2-b]pyridazin-3-yl}-2-methylbenzamide]: the IC50 turned out to be 0.4 nM.

For `COc1c(Oc2cc(NCCC(F)(F)F)c3ncc(-c4ccc(C(=O)NC5CC5)c(C)c4)n3n2)cccc1C(C)C` [Example 418, N-cyclopropyl-4-{6-[2-methoxy-3-(propan-2-yl)phenoxy]-8-[(3,3,3-trifluoropropyl)amino]imidazo[1,2-b]pyridazin-3-yl}-2-methylbenzamide], the IC50 is 1.2 nM.
